{
  "source": "patent US4443619A",
  "about": "“Chlorocitric acids” (Hoffmann-La Roche Inc., priority 1981, dated 1984)",
  "key": {"[1]": {"test": "Comparative anorectic activity: food consumption in meal-fed rats (acute, Example 13)", "format": "in vivo, Charles River female rats", "conditions": "3 hr meal, mean ± S.E.", "protocol": "Charles River female rats (Charles River Breeding Laboratories, Wilmington, Mass.), weighing 150 to 175 g, were individually housed in wire-bottomed cages in a temperature-regulated (22° C.) light-controlled room (12 hr light, 6 a.m. to 6 p.m. and 12 hr dark, 6 p.m. to 6 a.m.). Animals were fasted 48 hr, then meal-fed the 70% glucose diet described by A. C. Sullivan, et al., J. Nutrition, 101, 265 (1971) from 8 to 11 a.m. Following 5 to 13 days alimentation on the meal-feeding regimen, rats were dosed with the appropriate compounds orally by intubation 1/2 hr before the 3 hr meal. Food cups were weighed immediately after the meal. The control group consists of 31 rats while each drug treated group consists of 5 to 12 rats.\nThe G-70 diet consisted of 70% glucose, 23% vitamin-free casein, 5% Phillips and Hart salt mixture IV, 1% corn oil, 1% complete vitamin mixture, and 40 g/kg cellulose. To ensure complete uniformity, all diets were mixed with a twen-shell dry blender equipped with an itensifier bar (Patterson-Kelly Co., East Stroudsburg, Pa.)."}, "[2]": {"test": "Anorectic effect in 8 hour meal-fed Zucker rats (Example 17)", "format": "in vivo, lean (Fa/-) and obese (fa/fa)", "protocol": "Lean (Fa/-) Zucker rats and obese (fa/fa) Zucker rats of both sexes were individually housed in wire-bottomed cages in a temperature-regulated (22° C.) light-controlled room (12 hr light, 6 a.m. to 6 p.m. and 12 hr dark, 6 p.m. 6 a.m.). The animals were fed a high carbohydrate (70% glucose) diet ad libitum for 13 days, dosed with the indicated compounds by oral intubation for 9 days and allowed to recover for 3 days. The animals were then meal fed from 8 a.m. to 4 p.m. for a period of 5 days, following which they were continued on the same meal schedule for an additional 6 days. During the 6-day period, the animals were administered the indicated compounds by oral intubation at 8 a.m. and 12 p.m. Food cups were weighed immediately after the meal."}, "[3]": {"test": "Body weight gain in 8 hour meal-fed Zucker rats (Example 18)", "format": "in vivo, lean (Fa/-) and obese (fa/fa)", "conditions": "1.32 mmoles/kg b.i.d. oral, 6 days, mean ± S.E.", "protocol": "Lean (Fa/-) Zucker rats and obese (fa/fa) Zucker rats of both sexes were individually housed in wire-bottomed cages in a temperature-regulated (22° C.) light-controlled room (12 hr light, 6 a.m. to 6 p.m. and 12 hr dark, 6 p.m. to 6 a.m.). The animals were fed a high carbohydrate (70% glucose) diet ad libitum for 13 days, dosed with the indicated compounds by oral intubation for 9 days and allowed to recover for 3 days. The animals were then meal fed from 8 a.m. to 4 p.m. for a period of 5 days, following which they were continued on the same meal schedule for an additional 6 days. During the 6-day period, the animals were administered the indicated compounds by oral intubation at 8 a.m. and 12 p.m. Body weight gain during the 6-day period was determined."}, "Fatty Acid Synthesis": {"system": "Fatty Acid Synthesis", "test": "Fatty acid synthesis in pair-feeding experiments in rats (Example 24)", "format": "in vivo, female rats of the Charles River CD strain", "protocol": "Female rats of the Charles River CD strain (Charles River Breeding Laboratories, Wilmington, Mass.) weighing 120-160 g (ca. […] old) were housed individually in wire-bottomed cages in a temperature-regulated (22 C.), light-controlled room (12 hour light 6 A.M.-6 P.M., and dark 6 P.M.-6 A.M.). They had free access to water and were fed a commercial diet (Purina Rodent Chow, Ralston Purina Co., St. Louis, Mo.) ad libitum for at least 1 week prior to the experiment. Animals were fasted 48 hours, then meal-fed a synthetic diet (G-70) daily from 8-11 A.M. for the remainder of the experiment. Food consumption and body weight were measured during the meal-feeding period. […] Food spillage was measured daily.\nEach group consisted of 8 to 10 (140 to 160 g) rats. Food intake was monitored for a 3 day period; the animals were dosed immediately before the 3 hr meal. Pair-fed animals were fed the amount of food which the drug treated groups ate on the previous days (days 2 and 3).\nImmediately after the 3 hour feeding period, rats were administered intravenously a 0.25 ml saline (pH 7.4 to 7.6) solution with the following composition: 12.3 mg alanine, 5 μCi [^14 C] alanine (specific activity=156 mCi/mmole), 30.6 mg-ketoglutarate (as an amine acceptor for transaminase) and 1 mCi [^3 H] water (specific activity=100 mCi/g). […] [^3 H] Water was employed to determine the total rate of lipogenesis, since tritium is incorporated into fatty acids independent of the source of carbon precursors. Animals were killed by decapitation and blood collected in centrifuge tubes 30 minutes after the radioactive pulse, unless otherwise indicated. The specific radioactivity of the body water of each rat was determined by counting a diluted serum aliquot in 10 ml following cocktail: toluene (2.41), 2-methoxyethanol (1.61), naphthalene (320 g), and BBOT (2,5-bis-2-(5-tert-butylbenzoxazolyl)-thiophene, 16 g). Liver, and small intestine was excised rapidly, weighed, and homogenized in 15 ml H2 O in a Virtis 45 Macro Homogenizer for 15 sec at ca. 30,000 rpm. Duplicate 3 ml aliquots of whole homogenates were saponified, extracted, and the absolute radioactivity (dpm) determined. Liver lipids were extracted totally or separated into fatty acids and cholesterol by anion exchange chromatography. It was determined by anion exchange chromatography that the total lipid extract of liver contained fatty acids (96-97%) and cholesterol (3-4%). Data are expressed as nmoles [^14 C] alanine or μ moles [^3 H] water converted into lipid/g tissue/30 minutes. The nmoles [^14 C] alanine were calculated according to the injected load of alanine, as reported previously by A. C. Sullivan et al., Arch. Biochem. and Biophys., 150, 183 (1972). The μ moles [^3 H] water were determined as described previously by A. C. […]"}, "[4]": {"test": "Food intake in dogs, pyramiding oral doses (Examples 26 and 27)", "format": "in vivo, beagle dogs", "protocol": "Twelve beagle dogs of both sexes weighing 7.6-12.2 kg were used for this test. The test compounds were contained in gelatin capsules for oral administration to two dogs of each sex. The animals were weighed and food consumption calculated daily excluding weekends throughout the test period. Each animal received 800 grams of diet daily consisting of 400 grams of Wayne pellet dog food mixed with 400 ml distilled water. The animals received pyramiding oral doses of the test compound over the three week period. On Monday and Tuesday of the first week the animals were weighed and food consumption was recorded (control). The animals received 3 mg/kg on Wednesday and 10 mg/kg on Friday of the first week. Doses of 30, 100 and 300 mg/kg were administered on Monday, Wednesday and Friday respectively during the second week. A final dose of 1000 mg/kg was administered on Monday of the third week.\nFood intake was determined by the procedure by pyramiding doses described in Example 26."}, "Stomach Emptying": {"system": "Stomach Emptying", "test": "Effect on stomach emptying ([14C]glucose load) in rats (Example 25)", "format": "in vivo", "protocol": "Rats were trained to consume a 3 hr 70% glucose meal from 8 a.m. to 11 a.m. daily. On the experimental day, compounds were administered orally by intubation 30 min before a [^14 C]glucose load was given also by intubation. […] Sixty minutes later the rats were killed by decapitation; blood and stomachs were collected on ice.\nData are expressed as follows: dpm×10^3 per ml of serum and dpm×10^3 per stomach."}, "[5]": {"system": "fatty acid and cholesterol syntheses", "test": "Inhibition of fatty acid, lipid and cholesterol synthesis (summary statements)"}, "[6]": {"conditions": "test day 20, no dose, (±) one animal, (+) and (-) two animals"}, "[7]": {"conditions": "0.33 mmoles/kg oral, 60 min after [14C]glucose load, mean ± S.E."}},
  "data": [
    {"smiles": "O=C(O)C[C@@](O)(C(=O)O)[C@@H](Cl)C(=O)O", "note": "(relative stereo) [(±)-threo-Chlorocitric acid]", "values": [
      {"measurement": "Food consumption", "setting": "[1]; 0.08 mmoles/kg oral", "result": "6.4 ± 0.6", "unit": "g"},
      {"measurement": "Food consumption", "setting": "[1]; 0.17 mmoles/kg oral", "result": "6.8 ± 0.7", "unit": "g"},
      {"measurement": "Food consumption", "setting": "[1]; 0.33 mmoles/kg oral", "result": "5.7 ± 0.5", "unit": "g"},
      {"measurement": "Food consumption", "setting": "[1]; 0.66 mmoles/kg oral", "result": "3.9 ± 0.3", "unit": "g"},
      {"measurement": "Food consumption", "setting": "[1]; 1.32 mmoles/kg oral", "result": "3.1 ± 0.4", "unit": "g"},
      {"measurement": "Food consumption", "setting": "[1]; 2.63 mmoles/kg oral", "result": "3.8 ± 0.3", "unit": "g"},
      {"measurement": "Daily Food Consumption", "setting": "[2]; Fa/- lean, 1.32 mmoles/kg oral, treatment day 1", "result": "11.6 ± 0.8", "unit": "g"},
      {"measurement": "Daily Food Consumption", "setting": "[2]; Fa/- lean, 1.32 mmoles/kg oral, treatment day 2", "result": "7.5 ± 0.8", "unit": "g"},
      {"measurement": "Daily Food Consumption", "setting": "[2]; Fa/- lean, 1.32 mmoles/kg oral, treatment day 3", "result": "8.6 ± 1.3", "unit": "g"},
      {"measurement": "Daily Food Consumption", "setting": "[2]; Fa/- lean, 1.32 mmoles/kg oral, treatment day 4", "result": "6.9 ± 1.0", "unit": "g"},
      {"measurement": "Daily Food Consumption", "setting": "[2]; Fa/- lean, 1.32 mmoles/kg oral, treatment day 5", "result": "6.1 ± 0.7", "unit": "g"},
      {"measurement": "Daily Food Consumption", "setting": "[2]; Fa/- lean, 1.32 mmoles/kg oral, treatment day 6", "result": "7.2 ± 1.0", "unit": "g"},
      {"measurement": "Daily Food Consumption", "setting": "[2]; Fa/- lean, 1.32 mmoles/kg, day 0 (pretreatment)", "result": "12.3 ± 0.7", "unit": "g"},
      {"measurement": "Daily Food Consumption", "setting": "[2]; fa/fa obese, 1.32 mmoles/kg oral, treatment day 1", "result": "13.1 ± 0.9", "unit": "g"},
      {"measurement": "Daily Food Consumption", "setting": "[2]; fa/fa obese, 1.32 mmoles/kg oral, treatment day 2", "result": "7.8 ± 0.8", "unit": "g"},
      {"measurement": "Daily Food Consumption", "setting": "[2]; fa/fa obese, 1.32 mmoles/kg oral, treatment day 3", "result": "6.6 ± 0.2", "unit": "g"},
      {"measurement": "Daily Food Consumption", "setting": "[2]; fa/fa obese, 1.32 mmoles/kg oral, treatment day 4", "result": "5.9 ± 0.8", "unit": "g"},
      {"measurement": "Daily Food Consumption", "setting": "[2]; fa/fa obese, 1.32 mmoles/kg oral, treatment day 5", "result": "4.6 ± 1.1", "unit": "g"},
      {"measurement": "Daily Food Consumption", "setting": "[2]; fa/fa obese, 1.32 mmoles/kg oral, treatment day 6", "result": "5.3 ± 1.3", "unit": "g"},
      {"measurement": "Daily Food Consumption", "setting": "[2]; fa/fa obese, 1.32 mmoles/kg, day 0 (pretreatment)", "result": "14.3 ± 0.8", "unit": "g"},
      {"measurement": "Body Weight Gain", "setting": "[3]; Fa/- lean", "result": "-22.9 ± 2.9", "unit": "g"},
      {"measurement": "Body Weight Gain", "setting": "[3]; fa/fa obese", "result": "-27.9 ± 4.6", "unit": "g"},
      {"measurement": "Fatty Acid Synthesis, 3H2O converted", "setting": "Fatty Acid Synthesis; 1.32 mmoles/kg, pair-fed control 25.6 ± 3.9", "result": "21.4 ± 1.6 μmoles ^3 H2 O converted/g liv"},
      {"measurement": "Fatty Acid Synthesis, [14C]alanine converted", "setting": "Fatty Acid Synthesis; 1.32 mmoles/kg, pair-fed control 639 ± 69", "result": "809 ± 67 nmoles [^14 C]alanine converte"},
      {"measurement": "Food Consumption, % of control", "setting": "[4]; [6]", "result": "167 % of control"},
      {"measurement": "Food consumption", "setting": "[4]; [6]", "result": 800, "unit": "g"},
      {"measurement": "Food consumption", "setting": "[4]; test days -2, -1, before dosing (control period)", "result": "479 ± 96", "unit": "g"}
    ]},
    {"smiles": "O=C(O)CC(O)(C(=O)O)C(O)C(=O)O", "note": "(single isomer, unassigned) [hydroxycitric acid, reference compound]", "values": [
      {"measurement": "delay in gastric emptying", "setting": "Stomach Emptying; comparable doses", "result": "delayed gastric emptying"},
      {"measurement": "metabolic activity on lipid (fatty acid) and cholesterol syntheses", "setting": "[5]", "result": "inhibition of fatty acid and cholesterol syntheses"}
    ]},
    {"smiles": "O=C(O)C[C@@](O)(C(=O)O)[C@H](O)C(=O)O", "note": "[Trisodium (-)-threo-hydroxycitrate, reference compound]", "values": [
      {"measurement": "Food consumption", "setting": "[1]; 0.33 mmoles/kg oral", "result": "11.5 ± 0.7", "unit": "g"},
      {"measurement": "Food consumption", "setting": "[1]; 0.66 mmoles/kg oral", "result": "9.0 ± 0.6", "unit": "g"},
      {"measurement": "Food consumption", "setting": "[1]; 1.32 mmoles/kg oral", "result": "9.9 ± 1.0", "unit": "g"},
      {"measurement": "Food consumption", "setting": "[1]; 2.63 mmoles/kg oral", "result": "8.9 ± 0.8", "unit": "g"},
      {"measurement": "Fatty Acid Synthesis, 3H2O converted", "setting": "Fatty Acid Synthesis; 2.63 mmoles/kg, pair-fed control 21.3 ± 2.3", "result": "14.4 ± 1.6 μmoles ^3 H2 O converted/g liv"},
      {"measurement": "Fatty Acid Synthesis, [14C]alanine converted", "setting": "Fatty Acid Synthesis; 2.63 mmoles/kg, pair-fed control 714 ± 86", "result": "279 ± 36 nmoles [^14 C]alanine converte"},
      {"measurement": "Serum, total per ml", "setting": "Stomach Emptying; [7]", "result": "4.5 ± 0.3", "unit": "dpm × 10^3"},
      {"measurement": "Stomach Contents, total per stomach", "setting": "Stomach Emptying; [7]", "result": "1973 ± 154", "unit": "dpm × 10^3"}
    ]}
  ]
}
